Measurements reported in the NIST ThermoML archive (doi:10.1016/j.jct.2015.04.005).
± gives the expanded uncertainty stated by the source.

Experiments:
[1] = 102.24 kPa, Liquid, Frequency=5 MHz, Single path-length method
[2] = xn = mol fraction of the nth substance listed; settings: 102.24 kPa, Liquid, x2 = 0; for speed of sound: Frequency=5 MHz, Single path-length method; for mass density: Vibrating tube method

| SMILES | speed of sound ([1]; 293.15 K) | speed of sound ([1]; 298.15 K) | speed of sound ([1]; 303.15 K) | speed of sound ([1]; 308.15 K) | speed of sound ([1]; 313.15 K) | speed of sound ([1]; 318.15 K) | speed of sound ([1]; 323.15 K) | speed of sound ([1]; 328.15 K) | speed of sound ([1]; 333.15 K) | speed of sound ([1]; 338.15 K) | speed of sound ([1]; 343.15 K) | speed of sound ([2]; 313.15 K) | mass density ([2]; 323.15 K) | speed of sound ([2]; 328.15 K) | mass density ([2]; 328.15 K) | speed of sound ([2]; 333.15 K) | mass density ([2]; 333.15 K) |
| --- | --- | --- | --- | --- | --- | --- | --- | --- | --- | --- | --- | --- | --- | --- | --- | --- | --- |
| CCC(=O)[O-].C[NH2+]CCO [2-hydroxy-N-methylethanaminium propionate] | 1656.9 ± 8.1 m/s | 1638.4 ± 8.1 m/s | 1624.6 ± 8.1 m/s | 1607 ± 8.1 m/s | 1588.5 ± 8.1 m/s | 1573.2 ± 8.1 m/s | 1558.3 ± 8.1 m/s | 1543.7 ± 8.1 m/s | 1527 ± 8.1 m/s | 1507.1 ± 8.1 m/s | 1492.6 ± 8.1 m/s |  |  |  |  |  |  |
| O [water] + CCC(=O)[O-].C[NH2+]CCO |  |  |  |  |  |  |  |  |  |  |  | 1528.9 ± 8 m/s | 988 ± 1.7 kg/m3 | 1547.4 ± 8 m/s | 985.7 ± 1.7 kg/m3 | 1551 ± 8 m/s | 983.2 ± 1.7 kg/m3 |
